In the supplement of paper PMC10331698:
± gives the standard deviation of the averaged measurements.

Assays:
Assay in all cases: level (log10 ratio to DMSO vehicle control); higher = higher biomarker level / cell amount than vehicle control
Conditions in all cases: in DMSO
[1] = compound: FC(F)(F)C(F)(F)C(F)(F)CC1CO1 [1H,1H-Heptafluorobutyl epoxide]
Experimental: (§1)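 BioMAP Diversity Plus panel of 12 human primary cell co-culture systems (3C, 4H, LPS, SAg, BT, BF4T, BE3C, CASM3C, HDF3CGF, KF3CT, MyoF, Mphg). Compounds were added 1 h before stimulation and left for 24 h (MyoF 48 h; BT 72 h for soluble read-outs or 6 d for IgG). Biomarkers were read by ELISA, cytotoxicity by SRB, PBMC viability and proliferation by Alamar Blue. Each well value was divided by the mean of 8 DMSO control wells on the same plate and log10 transformed; duplicate blinded samples were tested at 4 concentrations.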

[2] = compound: O=S(=O)(O)C(F)(F)C(F)(F)C(F)(F)C(F)(F)C(F)(F)C(F)(F)C(F)(F)C(F)(F)C(F)(F)C(F)(F)F [Sodium perfluorodecanesulfonate]
Experimental: as §1

Hexafluoroamylene glycol = compound: OCC(F)(F)C(F)(F)C(F)(F)CO [Hexafluoroamylene glycol]
Experimental: as §1

[3] = compound: O=S(=O)(Cl)C(F)(F)C(F)(F)C(F)(F)C(F)(F)C(F)(F)C(F)(F)C(F)(F)C(F)(F)F [Perfluoro-1-octanesulfonyl chloride]
Experimental: as §1

Octafluoroadipamide = compound: NC(=O)C(F)(F)C(F)(F)C(F)(F)C(F)(F)C(N)=O [Octafluoroadipamide]
Experimental: as §1

[4] = compound: O=S(=O)(O)CCC(F)(F)C(F)(F)C(F)(F)C(F)(F)C(F)(F)C(F)(F)F [6:2 Fluorotelomer sulfonic acid]
Experimental: as §1

Test System	level (log10) ([1]; 6700 nM)	level (log10) ([1]; 20000 nM)	level (log10) ([1]; 60000 nM)	level (log10) ([2]; 1500 nM)	level (log10) ([2]; 4400 nM)	level (log10) ([2]; 13000 nM)	level (log10) ([2]; 40000 nM)	level (log10) (Hexafluoroamylene glycol; 6700 nM)	level (log10) (Hexafluoroamylene glycol; 20000 nM)	level (log10) (Hexafluoroamylene glycol; 60000 nM)	level (log10) ([3]; 6700 nM)	level (log10) ([3]; 20000 nM)	level (log10) ([3]; 60000 nM)	level (log10) (Octafluoroadipamide; 6700 nM)	level (log10) (Octafluoroadipamide; 20000 nM)	level (log10) (Octafluoroadipamide; 60000 nM)	level (log10) ([4]; 6700 nM)	level (log10) ([4]; 20000 nM)	level (log10) ([4]; 60000 nM)
3C:CCL2/MCP-1	0.0005 ± 0.0064	-0.011 ± 0.0071	-0.0025 ± 0.023	0.0315 ± 0.005	-0.0195 ± 0.026	0.005 ± 0.033	0.0655 ± 0.032	-0.024 ± 0.013	-0.013 ± 0.0042	-0.003	-0.009 ± 0.0085	-0.0025 ± 0.0092	0.017 ± 0.0014	-0.0065 ± 0.016	-0.002 ± 0.0014	0.03 ± 0.013	-0.0095 ± 0.021	-0.017 ± 0.024	0.012 ± 0.0071
3C:CD54/ICAM-1	-0.02 ± 0.0071	-0.0135 ± 0.005	-0.003 ± 0.0057	0.0115 ± 0.005	-0.0015 ± 0.00071	0.0115 ± 0.021	0.0145 ± 0.0078	-0.01 ± 0.0085	-0.0325 ± 0.005	-0.016 ± 0.023	-0.027 ± 0.0099	-0.0215 ± 0.023	-0.0045 ± 0.0078	-0.0125 ± 0.0021	-0.019 ± 0.0071	-0.006 ± 0.0085	-0.012 ± 0.021	-0.006 ± 0.021	-0.004 ± 0.011
3C:CD62E/E-Selectin	-0.011 ± 0.023	0.002 ± 0.013	0.0075 ± 0.0035	0.0005 ± 0.0035	0.002 ± 0.0071	0.0185 ± 0.028	0.057 ± 0.05	-0.0185 ± 0.037	-0.021 ± 0.025	-0.012 ± 0.0014	-0.017 ± 0.0071	0.0135 ± 0.021	0.11 ± 0.021	-0.0175 ± 0.011	-0.0115 ± 0.0064	0.012 ± 0.016	-0.021 ± 0.034	0.003 ± 0.048	0.026 ± 0.038
3C:CD106/VCAM-1	-0.0315 ± 0.023	-0.0385 ± 0.013	-0.012 ± 0.011	-0.0035 ± 0.0035	0.0055 ± 0.011	-0.016 ± 0.013	0.0065 ± 0.0078	-0.0205 ± 0.013	-0.031 ± 0.011	-0.0065 ± 0.0092	0.008 ± 0.013	0.028 ± 0.0099	0.0325 ± 0.013	-0.0215 ± 0.08	-0.02 ± 0.055	0.0005 ± 0.079	-0.019 ± 0.0071	-0.035	-0.014 ± 0.013
3C:CD141/Thrombomodulin	0.0125 ± 0.053	-0.034 ± 0.04	-0.0575 ± 0.08	-0.015 ± 0.031	-0.052 ± 0.013	-0.0325 ± 0.019	-0.0565 ± 0.0035	0.0175 ± 0.052	-0.01 ± 0.033	-0.011 ± 0.088	0.012 ± 0.025	0.0215 ± 0.016	0.186 ± 0.0021	0.0505 ± 0.044	0.048 ± 0.02	0.064 ± 0.0099	-0.0065 ± 0.05	-0.0475 ± 0.019	-0.0415 ± 0.033
3C:CD142/Tissue Factor	0.034 ± 0.0071	0 ± 0.033	0.0075 ± 0.022	-0.0005 ± 0.04	-0.0075 ± 0.015	0.0205 ± 0.025	-0.0695 ± 0.0078	0.014 ± 0.1	0.013 ± 0.062	0.009 ± 0.1	-0.035 ± 0.027	0.015 ± 0.013	0.0705 ± 0.063	0.007 ± 0.082	0.0255 ± 0.073	0.0795 ± 0.046	-0.0065 ± 0.029	0.006 ± 0.021	0.0155 ± 0.064
3C:CXCL8/IL-8	-0.0225 ± 0.019	-0.019 ± 0.0057	0 ± 0.018	0.035 ± 0.035	0.021 ± 0.013	0.03 ± 0.017	0.0725 ± 0.013	-0.0275 ± 0.069	-0.022 ± 0.042	0.012 ± 0.028	0.013 ± 0.014	0.043 ± 0.013	0.16 ± 0.0099	0.0145 ± 0.042	0.0035 ± 0.025	0.041 ± 0.0042	-0.034 ± 0.055	-0.0325 ± 0.053	0.06 ± 0.0085
3C:CXCL9/MIG	-0.005 ± 0.0071	-0.0135 ± 0.0064	-0.0035 ± 0.022	-0.005 ± 0.0099	-0.018 ± 0.011	-0.0025 ± 0.0064	0.001 ± 0.0057	-0.006 ± 0.0071	-0.01 ± 0.0057	0.007	-0.011 ± 0.0057	-0.003 ± 0.0028	0.021 ± 0.018	-0.002 ± 0.0028	0 ± 0.0057	0.024 ± 0.011	-0.0065 ± 0.0021	-0.009 ± 0.017	-0.006 ± 0.0042
3C:HLA-DR	0.017	0.002	0.011 ± 0.0042	-0.011 ± 0.011	-0.021 ± 0.02	-0.018 ± 0.0085	-0.0615 ± 0.016	-0.0225 ± 0.0064	-0.0205 ± 0.00071	-0.015 ± 0.0042	-0.0285 ± 0.0092	-0.013 ± 0.011	-0.0255 ± 0.056	-0.0085 ± 0.023	0.0055 ± 0.0021	0.024 ± 0.014	-0.0075 ± 0.025	-0.0145 ± 0.0078	-0.0065 ± 0.0035
3C:Proliferation	-0.0245 ± 0.028	-0.015 ± 0.033	0.004 ± 0.035	-0.0815 ± 0.013	-0.056 ± 0.017	-0.038 ± 0.02	-0.229 ± 0.011	-0.0035 ± 0.028	0.0075 ± 0.067	0.019 ± 0.03	-0.003 ± 0.0042	0.009 ± 0.03	-0.112 ± 0.037	-0.0265 ± 0.036	0.0065 ± 0.067	-0.0085 ± 0.063	0.0055 ± 0.0021	0.012 ± 0.027	0.0305 ± 0.039
3C:SRB	0.002 ± 0.035	0.0005 ± 0.018	-0.0185 ± 0.0064	-0.0035 ± 0.0035	-0.0155 ± 0.016	-0.04 ± 0.021	-0.191 ± 0.0028	-0.01 ± 0.0085	-0.0035 ± 0.021	0 ± 0.021	-0.0105 ± 0.0078	0.0015 ± 0.022	-0.233 ± 0.084	-0.0105 ± 0.047	-0.008 ± 0.052	-0.005 ± 0.03	0.001 ± 0.0099	0.002 ± 0.0057	-0.0045 ± 0.028
4H:CCL2/MCP-1	-0.033 ± 0.013	-0.018 ± 0.025	0.025 ± 0.042	-0.0285 ± 0.0078	-0.045 ± 0.0057	-0.0725 ± 0.028	-0.05 ± 0.0057	0.0255 ± 0.022	-0.02 ± 0.027	0.009 ± 0.0099	-0.0125 ± 0.021	-0.0475 ± 0.0035	-0.11 ± 0.12	-0.013 ± 0.0014	-0.023 ± 0.0085	-0.0005 ± 0.019	-0.0135 ± 0.056	0.0065 ± 0.029	-0.02 ± 0.011
4H:CCL26/Eotaxin-3	0.0055 ± 0.0064	-0.0365 ± 0.025	0.032 ± 0.062	-0.038 ± 0.0085	-0.052 ± 0.0014	-0.0885 ± 0.037	-0.129 ± 0.063	0.0655 ± 0.0021	0.0725 ± 0.015	0.0585 ± 0.0064	0.012 ± 0.014	-0.066 ± 0.0071	-0.0725 ± 0.043	0.04 ± 0.038	0.025 ± 0.069	0.012 ± 0.069	0.017 ± 0.0014	-0.0285 ± 0.023	-0.095 ± 0.018
4H:CD62P/P-selectin	-0.015 ± 0.0099	-0.007 ± 0.0014	0.0455 ± 0.046	-0.0165 ± 0.021	0.034 ± 0.018	0.064 ± 0.03	0.08 ± 0.033	-0.029 ± 0.095	0.014 ± 0.058	-0.0385 ± 0.0021	0.0315 ± 0.012	0.0485 ± 0.018	0.084 ± 0.031	-0.013 ± 0.0042	-0.0165 ± 0.032	-0.0175 ± 0.016	-0.004 ± 0.064	-0.003 ± 0.051	-0.013 ± 0.054
4H:CD87/uPAR	-0.0465 ± 0.06	-0.055 ± 0.045	-0.006 ± 0.021	0.0235 ± 0.056	0.0145 ± 0.022	0.0455 ± 0.0064	0.0065 ± 0.013	0.0015 ± 0.0021	-0.0205 ± 0.037	-0.027 ± 0.023	-0.0165 ± 0.054	-0.023 ± 0.048	-0.117 ± 0.053	-0.036 ± 0.045	-0.031 ± 0.023	-0.065 ± 0.0057	-0.0005 ± 0.029	0.001 ± 0.031	-0.002 ± 0.04
